Assay results from PMC9030254, “Target Hopping from Protein Kinases to PXR: Identification of Small-Molecule Protein Kinase Inhibitors as Selective Modulators of Pregnane X Receptor from TüKIC Library” (Cells, 2022).

Tests used:
Assay in all cases: Kinase profiling
Assay type in all cases: biochemical
[1] = target: T1, AuroraC (Homo sapiens, UniProt Q9UQB9)
T1 construct: purchased ProQinase (Freiburg, Germany)
T1 sequence (Q9UQB9 1-309): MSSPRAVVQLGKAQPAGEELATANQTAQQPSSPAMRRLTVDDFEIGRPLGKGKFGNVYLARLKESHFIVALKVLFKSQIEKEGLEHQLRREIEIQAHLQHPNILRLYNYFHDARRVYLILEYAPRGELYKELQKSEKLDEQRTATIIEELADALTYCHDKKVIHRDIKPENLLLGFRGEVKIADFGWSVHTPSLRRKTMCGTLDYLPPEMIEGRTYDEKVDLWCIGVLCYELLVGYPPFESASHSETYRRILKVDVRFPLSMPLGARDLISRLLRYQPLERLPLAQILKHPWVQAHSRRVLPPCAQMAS
Experimental: (§1) The analysis was performed by ProQinase (Freiburg, Germany).

[2] = target: T2, BLK (Homo sapiens, UniProt P51451)
T2 construct: purchased ProQinase (Freiburg, Germany)
T2 sequence (P51451 whole entry): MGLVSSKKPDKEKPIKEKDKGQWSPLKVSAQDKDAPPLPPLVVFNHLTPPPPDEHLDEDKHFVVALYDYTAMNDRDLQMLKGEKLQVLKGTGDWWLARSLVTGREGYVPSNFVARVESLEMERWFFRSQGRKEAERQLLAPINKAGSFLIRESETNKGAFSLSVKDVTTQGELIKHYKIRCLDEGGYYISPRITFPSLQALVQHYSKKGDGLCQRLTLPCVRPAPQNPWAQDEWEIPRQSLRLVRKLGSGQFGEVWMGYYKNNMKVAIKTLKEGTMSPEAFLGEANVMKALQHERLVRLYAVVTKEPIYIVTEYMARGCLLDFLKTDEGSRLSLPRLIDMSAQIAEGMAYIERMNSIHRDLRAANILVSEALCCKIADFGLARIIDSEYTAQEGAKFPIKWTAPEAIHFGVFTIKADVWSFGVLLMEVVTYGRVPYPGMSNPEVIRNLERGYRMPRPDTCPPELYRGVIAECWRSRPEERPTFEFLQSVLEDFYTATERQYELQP
Experimental: as §1

[3] = target: T3, CAMK2D (Homo sapiens, UniProt Q13557)
T3 construct: purchased ProQinase (Freiburg, Germany)
Experimental: as §1

[4] = target: T4, CDK6/CycD2 (Homo sapiens, UniProt Q00534)
T4 construct: purchased ProQinase (Freiburg, Germany)
Experimental: as §1

[5] = target: T5, CDK7/CycH/MAT1 (Homo sapiens, UniProt P50613)
T5 construct: purchased ProQinase (Freiburg, Germany)
Experimental: as §1

[6] = target: T6, CLK2 (Homo sapiens, UniProt P49760)
T6 construct: purchased ProQinase (Freiburg, Germany)
T6 sequence (P49760 whole entry): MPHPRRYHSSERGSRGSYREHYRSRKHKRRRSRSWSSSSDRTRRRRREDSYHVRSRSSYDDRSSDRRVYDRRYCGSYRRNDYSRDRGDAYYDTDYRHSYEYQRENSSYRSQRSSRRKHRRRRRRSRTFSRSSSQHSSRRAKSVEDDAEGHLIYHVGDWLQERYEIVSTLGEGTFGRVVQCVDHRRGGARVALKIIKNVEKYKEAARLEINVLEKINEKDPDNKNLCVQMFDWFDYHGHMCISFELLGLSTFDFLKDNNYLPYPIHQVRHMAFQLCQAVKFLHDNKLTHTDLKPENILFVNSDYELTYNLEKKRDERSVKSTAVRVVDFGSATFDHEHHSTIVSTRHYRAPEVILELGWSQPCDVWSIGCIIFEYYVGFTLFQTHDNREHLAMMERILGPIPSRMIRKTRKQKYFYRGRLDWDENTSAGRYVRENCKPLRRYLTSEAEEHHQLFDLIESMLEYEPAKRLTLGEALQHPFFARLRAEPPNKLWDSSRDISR
Experimental: as §1

[7] = target: T7, EPHA4 (Homo sapiens, UniProt P54764)
T7 construct: purchased ProQinase (Freiburg, Germany)
Experimental: as §1

[8] = target: T8, INSR (Homo sapiens, UniProt P06213)
T8 construct: purchased ProQinase (Freiburg, Germany)
Experimental: as §1

[9] = target: T9, IRAK1 (Homo sapiens, UniProt P51617)
T9 construct: purchased ProQinase (Freiburg, Germany)
T9 sequence (P51617 whole entry): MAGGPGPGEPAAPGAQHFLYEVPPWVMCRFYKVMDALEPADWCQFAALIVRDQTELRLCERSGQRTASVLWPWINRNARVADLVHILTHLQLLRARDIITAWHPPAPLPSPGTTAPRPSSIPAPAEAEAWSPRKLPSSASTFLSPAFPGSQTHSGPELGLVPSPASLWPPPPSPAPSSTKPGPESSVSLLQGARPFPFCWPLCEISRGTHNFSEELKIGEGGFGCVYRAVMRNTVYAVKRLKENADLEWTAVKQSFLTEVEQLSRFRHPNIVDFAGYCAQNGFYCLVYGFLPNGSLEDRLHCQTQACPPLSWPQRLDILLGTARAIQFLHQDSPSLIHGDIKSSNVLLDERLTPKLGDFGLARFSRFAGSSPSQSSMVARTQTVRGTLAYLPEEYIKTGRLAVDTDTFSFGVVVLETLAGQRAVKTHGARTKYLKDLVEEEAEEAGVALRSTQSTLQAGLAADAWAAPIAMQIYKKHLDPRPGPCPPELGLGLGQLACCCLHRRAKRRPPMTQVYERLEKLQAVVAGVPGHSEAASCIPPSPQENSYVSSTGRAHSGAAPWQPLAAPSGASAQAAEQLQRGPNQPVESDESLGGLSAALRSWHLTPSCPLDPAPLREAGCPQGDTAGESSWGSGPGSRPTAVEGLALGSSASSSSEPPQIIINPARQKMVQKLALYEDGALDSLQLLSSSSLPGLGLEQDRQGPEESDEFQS
Experimental: as §1

[10] = target: T10, MAP3K1 (Homo sapiens, UniProt Q13233)
T10 construct: purchased ProQinase (Freiburg, Germany)
Experimental: as §1

[11] = target: T11, MAP4K5 (Homo sapiens, UniProt Q9Y4K4)
T11 construct: purchased ProQinase (Freiburg, Germany)
Experimental: as §1

[12] = target: T12, MARK2 (Homo sapiens, UniProt Q7KZI7)
T12 construct: purchased ProQinase (Freiburg, Germany)
Experimental: as §1

[13] = target: T13, MST4 (Homo sapiens, UniProt Q9P289)
T13 construct: purchased ProQinase (Freiburg, Germany)
T13 sequence (Q9P289 whole entry): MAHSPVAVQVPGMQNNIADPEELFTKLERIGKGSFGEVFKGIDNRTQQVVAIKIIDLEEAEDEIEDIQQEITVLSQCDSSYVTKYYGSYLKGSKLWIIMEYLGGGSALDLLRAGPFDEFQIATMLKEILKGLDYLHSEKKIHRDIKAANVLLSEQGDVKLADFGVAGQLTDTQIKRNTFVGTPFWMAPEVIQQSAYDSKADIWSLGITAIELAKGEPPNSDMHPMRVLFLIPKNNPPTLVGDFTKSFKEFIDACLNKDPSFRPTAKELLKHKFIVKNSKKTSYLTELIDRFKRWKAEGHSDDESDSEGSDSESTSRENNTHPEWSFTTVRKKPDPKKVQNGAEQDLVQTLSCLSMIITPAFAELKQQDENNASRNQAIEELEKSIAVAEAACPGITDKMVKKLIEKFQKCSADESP
Experimental: as §1

[14] = target: T14, NEK11 (Homo sapiens, UniProt Q8NG66)
T14 construct: purchased ProQinase (Freiburg, Germany)
T14 sequence (Q8NG66 1-645): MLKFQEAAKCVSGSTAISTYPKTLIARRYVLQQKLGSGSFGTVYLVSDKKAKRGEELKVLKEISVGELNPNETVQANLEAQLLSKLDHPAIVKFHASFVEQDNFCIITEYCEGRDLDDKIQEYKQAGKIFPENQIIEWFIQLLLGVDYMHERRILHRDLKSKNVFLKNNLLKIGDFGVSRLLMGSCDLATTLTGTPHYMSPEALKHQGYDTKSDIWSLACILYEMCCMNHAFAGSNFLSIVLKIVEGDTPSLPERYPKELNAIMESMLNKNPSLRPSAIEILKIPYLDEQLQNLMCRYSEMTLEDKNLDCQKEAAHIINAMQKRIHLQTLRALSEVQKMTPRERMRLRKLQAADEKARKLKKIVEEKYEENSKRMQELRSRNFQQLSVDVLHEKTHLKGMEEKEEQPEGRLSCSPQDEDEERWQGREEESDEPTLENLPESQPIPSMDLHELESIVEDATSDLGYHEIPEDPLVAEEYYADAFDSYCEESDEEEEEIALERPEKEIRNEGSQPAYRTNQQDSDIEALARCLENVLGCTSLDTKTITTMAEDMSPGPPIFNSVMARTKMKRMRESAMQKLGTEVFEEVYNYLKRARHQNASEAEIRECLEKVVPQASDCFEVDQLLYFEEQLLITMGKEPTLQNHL
Experimental: as §1

[15] = target: T15, NEK6 (Homo sapiens, UniProt Q9HC98)
T15 construct: purchased ProQinase (Freiburg, Germany)
Experimental: as §1

[16] = target: T16, PDGFRbeta (Homo sapiens, UniProt P09619)
T16 construct: purchased ProQinase (Freiburg, Germany)
T16 sequence (P09619 33-1106): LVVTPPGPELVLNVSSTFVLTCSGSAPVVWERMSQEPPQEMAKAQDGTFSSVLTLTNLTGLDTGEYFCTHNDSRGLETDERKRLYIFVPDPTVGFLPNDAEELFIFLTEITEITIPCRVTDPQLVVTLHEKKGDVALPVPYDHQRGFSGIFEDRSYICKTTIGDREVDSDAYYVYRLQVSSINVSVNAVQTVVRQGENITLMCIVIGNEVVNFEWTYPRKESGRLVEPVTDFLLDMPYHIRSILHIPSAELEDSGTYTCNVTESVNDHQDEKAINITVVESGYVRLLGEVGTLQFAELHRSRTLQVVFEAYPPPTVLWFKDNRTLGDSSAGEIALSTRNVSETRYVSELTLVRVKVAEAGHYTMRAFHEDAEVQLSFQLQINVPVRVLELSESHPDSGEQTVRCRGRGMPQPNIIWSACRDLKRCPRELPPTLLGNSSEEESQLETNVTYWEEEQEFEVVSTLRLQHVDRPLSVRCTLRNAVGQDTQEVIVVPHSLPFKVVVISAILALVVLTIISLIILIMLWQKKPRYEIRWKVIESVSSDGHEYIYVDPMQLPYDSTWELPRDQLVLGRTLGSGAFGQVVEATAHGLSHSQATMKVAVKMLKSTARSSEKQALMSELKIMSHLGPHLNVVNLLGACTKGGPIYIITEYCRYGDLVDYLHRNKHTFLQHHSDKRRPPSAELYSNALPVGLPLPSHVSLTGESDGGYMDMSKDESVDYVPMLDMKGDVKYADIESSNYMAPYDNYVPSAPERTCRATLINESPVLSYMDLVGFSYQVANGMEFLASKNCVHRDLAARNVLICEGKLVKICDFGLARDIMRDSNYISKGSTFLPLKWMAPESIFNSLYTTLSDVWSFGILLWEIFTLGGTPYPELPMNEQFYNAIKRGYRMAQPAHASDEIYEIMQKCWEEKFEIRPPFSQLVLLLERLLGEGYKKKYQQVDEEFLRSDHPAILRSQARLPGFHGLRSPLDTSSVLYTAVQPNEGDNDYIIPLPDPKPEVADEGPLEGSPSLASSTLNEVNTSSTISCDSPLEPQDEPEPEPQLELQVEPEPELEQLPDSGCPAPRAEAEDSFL
Experimental: as §1

[17] = target: T17, PDK1 (Homo sapiens, UniProt O15530)
T17 construct: purchased ProQinase (Freiburg, Germany)
T17 sequence (O15530 1-556): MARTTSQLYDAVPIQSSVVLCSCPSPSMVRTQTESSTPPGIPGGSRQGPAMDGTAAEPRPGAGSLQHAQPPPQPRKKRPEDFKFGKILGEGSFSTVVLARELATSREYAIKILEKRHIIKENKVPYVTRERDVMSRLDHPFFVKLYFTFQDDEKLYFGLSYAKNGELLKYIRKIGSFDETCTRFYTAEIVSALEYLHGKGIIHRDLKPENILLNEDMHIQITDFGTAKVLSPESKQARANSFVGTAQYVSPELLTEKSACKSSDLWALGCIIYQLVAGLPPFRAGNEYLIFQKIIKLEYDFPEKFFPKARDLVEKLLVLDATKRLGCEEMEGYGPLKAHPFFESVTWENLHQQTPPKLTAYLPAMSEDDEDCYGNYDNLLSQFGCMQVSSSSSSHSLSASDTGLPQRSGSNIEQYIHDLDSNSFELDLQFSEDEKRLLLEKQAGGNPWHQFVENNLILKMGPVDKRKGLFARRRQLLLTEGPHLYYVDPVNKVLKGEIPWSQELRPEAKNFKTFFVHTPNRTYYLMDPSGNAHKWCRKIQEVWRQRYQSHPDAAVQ
Experimental: as §1

[18] = target: T18, TIE2 (Homo sapiens, UniProt Q02763)
T18 construct: purchased ProQinase (Freiburg, Germany)
Experimental: as §1

[19] = target: T19, WNK3 (Homo sapiens, UniProt Q9BYP7)
T19 construct: purchased ProQinase (Freiburg, Germany)
T19 sequence (Q9BYP7 whole entry): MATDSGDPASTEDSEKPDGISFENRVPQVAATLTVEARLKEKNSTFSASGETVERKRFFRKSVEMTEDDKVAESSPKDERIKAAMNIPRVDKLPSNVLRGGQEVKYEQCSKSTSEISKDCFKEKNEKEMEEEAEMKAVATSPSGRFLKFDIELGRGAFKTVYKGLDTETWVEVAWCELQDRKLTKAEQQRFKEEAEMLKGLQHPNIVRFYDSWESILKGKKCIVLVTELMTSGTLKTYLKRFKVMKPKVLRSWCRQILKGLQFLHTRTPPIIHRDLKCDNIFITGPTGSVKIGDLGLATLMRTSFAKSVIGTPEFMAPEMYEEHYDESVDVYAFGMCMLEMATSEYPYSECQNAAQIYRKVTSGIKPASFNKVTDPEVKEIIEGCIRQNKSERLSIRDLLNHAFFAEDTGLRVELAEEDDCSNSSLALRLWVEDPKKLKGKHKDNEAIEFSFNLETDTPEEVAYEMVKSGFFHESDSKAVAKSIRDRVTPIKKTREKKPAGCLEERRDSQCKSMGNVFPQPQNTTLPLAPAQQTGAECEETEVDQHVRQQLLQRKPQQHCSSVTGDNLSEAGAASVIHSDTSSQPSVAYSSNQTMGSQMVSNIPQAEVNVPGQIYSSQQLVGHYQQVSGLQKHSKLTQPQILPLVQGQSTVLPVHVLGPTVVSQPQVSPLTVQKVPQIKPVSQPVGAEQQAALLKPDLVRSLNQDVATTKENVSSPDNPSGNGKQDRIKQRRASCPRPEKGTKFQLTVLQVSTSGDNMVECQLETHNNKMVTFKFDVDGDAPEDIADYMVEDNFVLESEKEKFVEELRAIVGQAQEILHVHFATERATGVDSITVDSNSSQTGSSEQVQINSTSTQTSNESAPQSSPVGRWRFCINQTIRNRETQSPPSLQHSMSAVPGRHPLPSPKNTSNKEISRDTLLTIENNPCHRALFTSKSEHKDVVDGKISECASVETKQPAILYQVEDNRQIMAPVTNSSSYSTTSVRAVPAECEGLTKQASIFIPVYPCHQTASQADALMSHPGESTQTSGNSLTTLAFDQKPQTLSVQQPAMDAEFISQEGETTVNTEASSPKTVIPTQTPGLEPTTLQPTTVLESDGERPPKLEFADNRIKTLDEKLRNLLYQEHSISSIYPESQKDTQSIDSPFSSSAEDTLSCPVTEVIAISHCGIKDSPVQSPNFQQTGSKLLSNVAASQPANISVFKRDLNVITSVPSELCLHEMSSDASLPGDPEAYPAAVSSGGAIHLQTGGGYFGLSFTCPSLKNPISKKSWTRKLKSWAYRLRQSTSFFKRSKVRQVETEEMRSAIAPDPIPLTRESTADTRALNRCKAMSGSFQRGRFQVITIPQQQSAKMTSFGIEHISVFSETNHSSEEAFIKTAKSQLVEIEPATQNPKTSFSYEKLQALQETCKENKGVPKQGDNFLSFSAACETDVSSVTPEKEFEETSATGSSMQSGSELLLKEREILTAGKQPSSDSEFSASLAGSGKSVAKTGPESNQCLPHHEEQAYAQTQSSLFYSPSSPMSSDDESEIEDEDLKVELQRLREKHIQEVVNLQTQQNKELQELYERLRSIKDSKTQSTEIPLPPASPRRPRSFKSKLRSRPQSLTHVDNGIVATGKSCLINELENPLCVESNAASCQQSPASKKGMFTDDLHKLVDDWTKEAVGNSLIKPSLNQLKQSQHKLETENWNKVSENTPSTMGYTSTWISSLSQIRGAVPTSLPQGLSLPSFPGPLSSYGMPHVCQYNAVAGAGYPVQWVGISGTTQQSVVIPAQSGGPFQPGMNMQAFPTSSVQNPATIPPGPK
Experimental: as §1

Row | Structure (SMILES) | Residual activity ([1]; 1.0E-05 M) | Residual activity ([1]; 1.0E-06 M) | Residual activity ([2]; 1.0E-05 M) | Residual activity ([2]; 1.0E-06 M) | Residual activity ([3]; 1.0E-05 M) | Residual activity ([3]; 1.0E-06 M) | Residual activity ([4]; 1.0E-05 M) | Residual activity ([4]; 1.0E-06 M) | Residual activity ([5]; 1.0E-05 M) | Residual activity ([5]; 1.0E-06 M) | Residual activity ([6]; 1.0E-05 M) | Residual activity ([6]; 1.0E-06 M) | Residual activity ([7]; 1.0E-05 M) | Residual activity ([7]; 1.0E-06 M) | Residual activity ([8]; 1.0E-05 M) | Residual activity ([8]; 1.0E-06 M) | Residual activity ([9]; 1.0E-05 M) | Residual activity ([9]; 1.0E-06 M) | Residual activity ([10]; 1.0E-05 M) | Residual activity ([10]; 1.0E-06 M) | further results
1 | O=C(Cc1ccccc1)Nc1ccc(F)c(Nc2ccc3c(c2)CCCCC3=O)c1 [Compound 100] | 101 % of control | 110 % of control | 110 % of control | 118 % of control | 90 % of control | 103 % of control | 97 % of control | 97 % of control | 83 % of control | 94 % of control | 107 % of control | 117 % of control | 88 % of control | 97 % of control | 92 % of control | 95 % of control | 106 % of control | 107 % of control | 83 % of control | 96 % of control | Residual activity ([11]; 1.0E-05 M): 94 % of control; Residual activity ([11]; 1.0E-06 M): 98 % of control; Residual activity ([12]; 1.0E-05 M): 104 % of control; Residual activity ([12]; 1.0E-06 M): 103 % of control; Residual activity ([13]; 1.0E-05 M): 82 % of control; Residual activity ([13]; 1.0E-06 M): 90 % of control; Residual activity ([14]; 1.0E-05 M): 110 % of control; Residual activity ([14]; 1.0E-06 M): 97 % of control; Residual activity ([15]; 1.0E-05 M): 87 % of control; Residual activity ([15]; 1.0E-06 M): 95 % of control; Residual activity ([16]; 1.0E-05 M): 99 % of control; Residual activity ([16]; 1.0E-06 M): 100 % of control; Residual activity ([17]; 1.0E-05 M): 57 % of control; Residual activity ([17]; 1.0E-06 M): 102 % of control; Residual activity ([18]; 1.0E-05 M): 66 % of control; Residual activity ([18]; 1.0E-06 M): 96 % of control; Residual activity ([19]; 1.0E-05 M): 109 % of control; Residual activity ([19]; 1.0E-06 M): 107 % of control
2 | O=C(Nc1ccc(F)c(Nc2ccc3c(c2)CCCCC3=O)c1)c1cccc(F)c1 [Compound 109] | 101 % of control | 99 % of control | 82 % of control | 82 % of control | 88 % of control | 92 % of control | 94 % of control | 105 % of control | 92 % of control | 89 % of control | 103 % of control | 112 % of control | 90 % of control | 86 % of control | 84 % of control | 95 % of control | 104 % of control | 100 % of control | 93 % of control | 96 % of control | Residual activity ([11]; 1.0E-05 M): 92 % of control; Residual activity ([11]; 1.0E-06 M): 92 % of control; Residual activity ([12]; 1.0E-05 M): 99 % of control; Residual activity ([12]; 1.0E-06 M): 107 % of control; Residual activity ([13]; 1.0E-05 M): 80 % of control; Residual activity ([13]; 1.0E-06 M): 92 % of control; Residual activity ([14]; 1.0E-05 M): 104 % of control; Residual activity ([14]; 1.0E-06 M): 86 % of control; Residual activity ([15]; 1.0E-05 M): 92 % of control; Residual activity ([15]; 1.0E-06 M): 96 % of control; Residual activity ([16]; 1.0E-05 M): 99 % of control; Residual activity ([16]; 1.0E-06 M): 98 % of control; Residual activity ([17]; 1.0E-05 M): 80 % of control; Residual activity ([17]; 1.0E-06 M): 98 % of control; Residual activity ([18]; 1.0E-05 M): 78 % of control; Residual activity ([18]; 1.0E-06 M): 87 % of control; Residual activity ([19]; 1.0E-05 M): 104 % of control; Residual activity ([19]; 1.0E-06 M): 93 % of control
